ChEMBL document CHEMBL3526155, “Endoxifen, the active metabolite of tamoxifen, is a substrate of the efflux transporter P-glycoprotein (multidrug resistance 1)” (Drug Metab Dispos, 2011)

Columns and labels:
[1] = biological target: T1, MDR1 (ABCB1) (Homo sapiens, UniProt P08183); experiment: Activity of human MDR1 expressed in pig LLC-PK cells assessed as apparent permeability from basolateral to apical side at 5 uM after 1 to 4 hrs by LC-MS/MS analysis; assay type: ADME, cell-based; details: LLC-PK1
[2] = tested on: Plasma; experiment: Drug uptake in wild-type CF-1 mouse plasma at 5 mg/kg, po after 0.5 to 4 hrs by LC-MS/MS analysis; assay type: ADME, organism-based; design: dose 5 mg/kg, route oral; details: in vivo
[3] = Apparent permeability from basolateral to apical side in pig LLC-PK cells at 5 uM after 1 to 4 hrs by LC-MS/MS analysis; assay type: ADME, cell-based, Sus scrofa; details: LLC-PK1
[4] = Apparent permeability from apical to basolateral side in pig LLC-PK cells at 5 uM after 1 to 4 hrs by LC-MS/MS analysis; assay type: ADME, cell-based, Sus scrofa; details: LLC-PK1
[5] = biological target: T1, MDR1 (ABCB1); experiment: Activity of human MDR1 expressed in pig LLC-PK cells assessed as efflux ratio of apparent permeability from basolateral to apical to apical to basolateral side at 5 uM after 1 to 4 hrs by LC-MS/MS analysis; assay type: ADME, cell-based; details: LLC-PK1
[6] = tested on: Brain; experiment: Drug uptake in wild-type CF-1 mouse brain at 5 mg/kg, po after 0.5 to 4 hrs by LC-MS/MS analysis; assay type: ADME, organism-based; design: dose 5 mg/kg, route oral; details: in vivo
[7] = Ratio of drug level in brain to plasma in MDR1A-deficient CF-1 mouse at 5 mg/kg, po after 0.5 to 4 hrs by LC-MS/MS analysis; assay type: ADME, organism-based; design: dose 5 mg/kg, route oral; details: read-out: BPR
[8] = tested on: Liver; experiment: Drug uptake in wild-type CF-1 mouse liver at 5 mg/kg, po after 0.5 to 4 hrs by LC-MS/MS analysis; assay type: ADME, organism-based; design: dose 5 mg/kg, route oral; details: in vivo
[9] = tested on: Brain; experiment: Drug uptake in MDR1A-deficient CF-1 mouse brain at 5 mg/kg, po after 0.5 to 4 hrs by LC-MS/MS analysis; assay type: ADME, organism-based; design: dose 5 mg/kg, route oral; details: in vivo
[10] = tested on: Brain; experiment: Drug uptake in MDR1A-deficient CF-1 mouse brain at 5 mg/kg, po after 0.5 to 4 hrs by LC-MS/MS analysis relative to wild-type; assay type: ADME, organism-based; design: dose 5 mg/kg, route oral; details: in vivo
[11] = biological target: T1, MDR1 (ABCB1); experiment: Activity of human MDR1 expressed in pig LLC-PK cells assessed as apparent permeability from apical to basolateral side at 5 uM after 1 to 4 hrs by LC-MS/MS analysis; assay type: ADME, cell-based; details: LLC-PK1
[12] = Efflux ratio of apparent permeability from basolateral to apical to apical to basolateral side in pig LLC-PK cells at 5 uM after 1 to 4 hrs by LC-MS/MS analysis; assay type: ADME, cell-based, Sus scrofa; details: LLC-PK1
[13] = tested on: Plasma; experiment: Drug uptake in MDR1A-deficient CF-1 mouse plasma at 5 mg/kg, po after 0.5 to 4 hrs by LC-MS/MS analysis; assay type: ADME, organism-based; design: dose 5 mg/kg, route oral; details: in vivo
[14] = tested on: Liver; experiment: Drug uptake in MDR1A-deficient CF-1 mouse liver at 5 mg/kg, po after 0.5 to 4 hrs by LC-MS/MS analysis; assay type: ADME, organism-based; design: dose 5 mg/kg, route oral; details: in vivo

T1 sequence (P08183 whole entry): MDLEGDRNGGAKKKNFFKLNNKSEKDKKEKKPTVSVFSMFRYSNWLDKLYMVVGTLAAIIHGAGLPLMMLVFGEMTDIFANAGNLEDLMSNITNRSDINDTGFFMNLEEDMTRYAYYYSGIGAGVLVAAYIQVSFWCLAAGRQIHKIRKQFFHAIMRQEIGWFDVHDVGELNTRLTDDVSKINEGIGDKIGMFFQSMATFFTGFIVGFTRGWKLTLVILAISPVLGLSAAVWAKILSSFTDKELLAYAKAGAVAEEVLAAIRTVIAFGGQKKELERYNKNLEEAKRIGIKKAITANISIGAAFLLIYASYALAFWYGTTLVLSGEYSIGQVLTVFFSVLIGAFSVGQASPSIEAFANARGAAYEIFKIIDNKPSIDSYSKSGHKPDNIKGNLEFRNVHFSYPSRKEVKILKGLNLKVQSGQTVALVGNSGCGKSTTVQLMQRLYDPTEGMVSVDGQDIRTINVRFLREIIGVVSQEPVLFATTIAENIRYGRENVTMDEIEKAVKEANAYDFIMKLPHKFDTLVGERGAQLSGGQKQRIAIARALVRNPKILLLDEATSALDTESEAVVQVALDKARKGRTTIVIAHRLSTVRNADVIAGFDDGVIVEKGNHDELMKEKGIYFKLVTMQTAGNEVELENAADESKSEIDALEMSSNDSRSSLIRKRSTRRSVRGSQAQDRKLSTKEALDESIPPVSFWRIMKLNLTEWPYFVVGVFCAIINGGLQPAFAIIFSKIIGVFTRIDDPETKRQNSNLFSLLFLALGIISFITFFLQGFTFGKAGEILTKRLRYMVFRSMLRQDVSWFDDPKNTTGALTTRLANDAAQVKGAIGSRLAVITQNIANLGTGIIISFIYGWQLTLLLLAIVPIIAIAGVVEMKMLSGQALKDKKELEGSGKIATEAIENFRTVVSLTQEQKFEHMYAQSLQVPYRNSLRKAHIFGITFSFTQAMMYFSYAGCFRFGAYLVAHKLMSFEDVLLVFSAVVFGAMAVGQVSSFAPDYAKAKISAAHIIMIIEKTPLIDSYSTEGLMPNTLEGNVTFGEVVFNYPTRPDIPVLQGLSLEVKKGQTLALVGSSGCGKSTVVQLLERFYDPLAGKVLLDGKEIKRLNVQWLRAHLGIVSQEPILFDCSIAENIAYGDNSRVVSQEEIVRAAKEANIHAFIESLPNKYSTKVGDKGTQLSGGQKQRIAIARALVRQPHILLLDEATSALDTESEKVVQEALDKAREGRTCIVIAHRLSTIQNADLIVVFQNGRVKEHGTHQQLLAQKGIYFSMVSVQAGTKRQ

Papp B→A at 5 µM [1] [×10⁻⁶ cm/s] | Drug uptake [2] | Papp B→A at 5 µM [3] [×10⁻⁶ cm/s] | Papp A→B at 5 µM [4] [×10⁻⁶ cm/s] | efflux ratio at 5 µM [5] | Drug uptake [6] | Kp [7] | Drug uptake [8] | Drug uptake [9] | Ratio [10] | Papp A→B at 5 µM [11] [×10⁻⁶ cm/s] | efflux ratio at 5 µM [12] | Drug uptake [13] | Drug uptake [14] | SMILES
6.74 | – | – | – | – | – | – | – | – | – | – | – | – | – | C[C@H]1O[C@@H](O[C@H]2[C@@H](O)C[C@H](O[C@H]3[C@@H](O)C[C@H](O[C@H]4CC[C@@]5(C)[C@H](CC[C@@H]6[C@@H]5C[C@@H](O)[C@]5(C)[C@@H](C7=CC(=O)OC7)CC[C@]65O)C4)O[C@@H]3C)O[C@@H]2C)C[C@H](O)[C@@H]1O [DIGOXIN]
2.77 | Active | 2.15 | 1.83 | 2.67 | Active | > 10 | Active | Active | 20 | 1.1 | 1.07 | Active | Active | CC/C(=C(\c1ccc(O)cc1)c1ccc(OCCNC)cc1)c1ccccc1 [ENDOXIFEN]
